Measurements: patent US7879887B2, “α-amino acid derivatives and medicaments containing the same as an active ingredient” (Nissan Chemical Industries, Ltd., priority 2006, dated 2011)

Key:
CDK1/Cyclin B complex = target: T1, CDK1/Cyclin B complex (Homo sapiens, UniProt P06493); assay: In vitro kinase assay, CDK1/Cyclin B complex; type: biochemical; conditions: recombinant protein (Upstate)
T1 construct: purchased Upstate Inc. 14-450
Description: (§1) Inhibitory activity against Aurora A, CDK1/Cyclin B complex, CDK2/Cyclin E complex and CDK3/Cyclin E complex were measured by in vitro kinase assay using recombinant proteins. The assays were carried out by using recombinant proteins (Upstate Inc.) for Aurora A, CDK1/Cyclin B complex, CDK2/Cyclin E complex and CDK3/Cyclin E complex (respective cat. nos. 14-511, 14-450, 14-448 and 14-487), in accordance with the procedure described in the product instructions thereof. The 50% inhibitory concentrations (IC50 values) were calculated by assigning measured values in the case of not containing a test compound to an inhibition of 0%, and assigning measured values in the case of not containing a test compound and enzyme to an inhibition of 100%.

CDK2/Cyclin E complex = CDK2/Cyclin E complex (Homo sapiens, UniProt P24941); assay: In vitro kinase assay, CDK2/Cyclin E complex; type: biochemical; conditions: recombinant protein (Upstate); read-out: CDK2/cyclinE IC50
Description: (§2) Inhibitory activity against Aurora A, CDK1/Cyclin B complex, CDK2/Cyclin E complex and CDK3/Cyclin E complex were measured by in vitro kinase assay using recombinant proteins.

CDK3/Cyclin E complex = target: T2, CDK3/Cyclin E complex (Homo sapiens, UniProt Q00526); assay: In vitro kinase assay, CDK3/Cyclin E complex; type: biochemical; conditions: recombinant protein (Upstate); read-out: CDK3/cyclinE IC50
T2 construct: purchased Upstate Inc. 14-487
Description: as §2

leukemia cell line KG-1a = assay: Cell proliferation inhibitory activity, KG-1a; type: cell-based; conditions: Homo sapiens, 96 h, cells counted 4 days later with Cell Counting Kit-8
Description: (§3) Evaluations were carried out using colon carcinoma cell line SW620 (Cat. No. CCL-227), lung carcinoma cell line NCI-H460 (Cat. No. HTB-177), prostate cancer cell line DU 145 (Cat. No. HTB-81), breast cancer cell line MDA-MB-231 (Cat. No. HTB26) and leukemia cell line KG-1a (Cat. No. CCL-246.1) purchased from ATCC, pancreatic cancer cell line MIAPaCa-2 (Cat. No. CRL-1420) purchased from Dainippon Pharmaceutical, and ovarian cancer cell line IGROV1 received from the Netherland Cancer Institute. The cells were cultured under the conditions recommended by the supplier for each cell line, or with respect to IGROV1, according to the method described in Cancer Res. 59: 4559-4563, 1999. Cells suspended in media were added to solutions containing the test substances at various concentrations followed by culturing in a 5% CO2 incubator at 37° C. The numbers of cells were counted 4 days later with the Cell Counting Kit-8. IC50 values were calculated by assigning measured values in the case of not containing a test substance to an inhibition of 0%, and assigning measured values in the case of not containing a test substance or cells to an inhibition of 100%.

Aurora A = target: T3, Aurora A (Homo sapiens, UniProt O14965); assay: In vitro kinase assay, Aurora A; type: biochemical; conditions: recombinant protein (Upstate)
T3 construct: purchased Upstate Inc. 14-511
T3 sequence (O14965 1-403): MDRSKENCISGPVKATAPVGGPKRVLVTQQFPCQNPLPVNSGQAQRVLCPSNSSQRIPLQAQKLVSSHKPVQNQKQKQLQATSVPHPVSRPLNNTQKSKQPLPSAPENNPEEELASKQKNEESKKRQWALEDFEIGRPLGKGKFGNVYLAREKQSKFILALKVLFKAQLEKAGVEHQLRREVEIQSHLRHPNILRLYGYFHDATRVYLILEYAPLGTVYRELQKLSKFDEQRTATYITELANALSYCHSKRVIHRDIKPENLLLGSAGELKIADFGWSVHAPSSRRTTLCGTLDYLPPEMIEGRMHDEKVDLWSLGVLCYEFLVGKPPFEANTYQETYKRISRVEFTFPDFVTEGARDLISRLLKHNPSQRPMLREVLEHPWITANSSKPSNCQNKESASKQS
Description: as §1

[1] = tested on: colon carcinoma cell line SW620; assay: Cell proliferation inhibitory activity, SW620; type: cell-based, human; conditions: Homo sapiens, SW-620, 96 h, cells counted 4 days later with Cell Counting Kit-8
Description: as §3

[2] = tested on: lung carcinoma cell line NCI-H460; assay: Cell proliferation inhibitory activity, NCI-H460; type: cell-based; conditions: Homo sapiens, 96 h, cells counted 4 days later with Cell Counting Kit-8
Description: as §3

recombinant human βARK1 = target: T4, recombinant human βARK1 (Homo sapiens, UniProt P25098); assay: Inhibitory activity against βARK1 (33P phosphorylation of synthetic peptide); type: biochemical; conditions: recombinant human βARK1, 60 minutes at room temperature
T4 construct: made in house; host or cells: Sf-9 insect cells (baculovirus, pBacPAK8)
T4 sequence (P25098 1-689): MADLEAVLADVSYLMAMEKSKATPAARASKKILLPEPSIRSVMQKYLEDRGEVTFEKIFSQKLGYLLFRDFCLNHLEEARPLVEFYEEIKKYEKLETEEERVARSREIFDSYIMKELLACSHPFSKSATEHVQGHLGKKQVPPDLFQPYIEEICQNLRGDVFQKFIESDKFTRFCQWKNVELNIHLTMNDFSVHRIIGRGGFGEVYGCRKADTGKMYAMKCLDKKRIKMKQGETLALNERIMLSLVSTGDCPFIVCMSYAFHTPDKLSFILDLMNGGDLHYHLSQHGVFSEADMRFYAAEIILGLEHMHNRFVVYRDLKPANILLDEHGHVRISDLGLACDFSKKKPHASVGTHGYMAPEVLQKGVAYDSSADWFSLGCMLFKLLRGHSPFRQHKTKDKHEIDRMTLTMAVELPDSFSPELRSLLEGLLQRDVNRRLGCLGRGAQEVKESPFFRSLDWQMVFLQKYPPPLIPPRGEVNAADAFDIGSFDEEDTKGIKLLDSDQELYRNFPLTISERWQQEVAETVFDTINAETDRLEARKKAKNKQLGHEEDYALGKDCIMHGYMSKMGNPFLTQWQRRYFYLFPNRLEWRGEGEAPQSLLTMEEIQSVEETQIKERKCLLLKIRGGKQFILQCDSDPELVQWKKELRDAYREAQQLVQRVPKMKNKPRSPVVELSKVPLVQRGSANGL
Description: Human βARK1 was amplified by PCR based on the base sequence of human βARK1 mRNA registered in GenBank (Accession No. M80776) using a human leukocyte cDNA library (Gibco BRL Cat. No. 10421-022) as a template. The amplified cDNA fragment was inserted into a pBacPAK8 vector (Clontech) to construct a plasmid.
Recombinant human βARK1 was expressed using the BacPAK Baculovirus Expression System (Clontech, Cat. No. K1601-1). 1×10^6 Sf-9 cells were adhered to a 35 mm dish in 2.5 mL of TMN-FH Insect Medium containing 10 vol % FBS (Pharminogen, Cat. No. PM-21227M) and cultured overnight at 27° C. On the following day, the medium was removed and 500 ng of the above plasmid, BacPAK6 viral DNA cleaved with Bsu36I (5 μL) and 1.5 mL of the same medium mixed with 4 μL of Bacfectin were added followed by culturing for 5 hours, further adding 1.5 mL of medium and subsequently culturing for 5 days. […] The culture supernatant after 5 days was recovered and a plaque assay was carried out to isolate single plaques. These were then infected into Sf-9 cells and the resulting culture supernatant was designated as Passage 1 (1−3×10^11 pfu/mL). Passage 1 was added to 3×10^7 Sf-9 cells to a multiplicity of infection (MOI) of 0.1 (pfu/cell), suspension culturing was carried out for 5 days using a spinner flask, and the resulting culture supernatant was designated as Passage 2 (4×10^10 pfu/mL) and used as a viral liquid for large-volume expression.
Sf-9 cells at 3×10^9 cells/200 mL were infected by adding Passage 2 to an MOI of 100 followed by addition of medium to bring to a liquid volume of 2 L and further culturing for 3 days. After recovering the cells by centrifugation and washing three times with PBS, the cells were suspended in 100 mL of Lysis Buffer (20 mmol/L HEPES-HCl (pH 7.2), 5 mmol/L EDTA, 3 mmol/L phenylmethylsulfonyl fluoride (PMSF)). After lysing the cells by ultrasonic treatment at low temperature, the supernatant was recovered by centrifuging (45,000×g, 15 minutes) (sup1). NaCl was added to the resulting supernatant to a final concentration of 250 mmol/L followed by ultracentrifugation (300,000×g, 60 minutes) and using the subsequent supernatant as a crude cell extract (sup2).
Purification was carried out with reference to the literature (Benovic, J. L., Methods Enzymol. 1991; 200: 351-362; Kim, C. M. et al., Receptor 1993; 3: 39-55; Sohlemann, P. et al., FEBS Letters 1993; 324: 59-62). The crude cell extract was accurately brought to a volume of 400 mL with Buffer C (20 mmol/L HEPES-HCl (pH 7.2), 5 mmol/L EDTA, 0.02 vol % Triton X-100) followed by loading onto a 50 mL SP-Sepharose FF (Amersham Pharmacia Biotech) column equilibrated with Buffer C. […] ETA was carried out on each fraction using anti-GRK2 antibody (Santa-Cruz Cat. No. SC-562) and the positive fractions were collected (GRK2=βARK1). This was then diluted three-fold with Buffer C and loaded on a 5 mL HiTrap Heparin column (Amersham Pharmacia Biotech) column equilibrated with Buffer C. After washing the column with Wash Buffer (100 mmol/L NaCl, Buffer C), the column was eluted with an NaCl concentration gradient (100 to 600 mmol/L NaCl for 100 minutes, flow rate: 1 mL/min). The positive fractions as determined by ETA were collected and stored in a freezer at −80° C.
A synthetic peptide having an amino acid sequence of biotinated-[…] was used in accordance with a previous report (Chen, C. Y. et al., J. Biol. Chem. 1993; 268: 7825-7831). This synthetic peptide can also be synthesized with reference to known synthesis methods (for example, Chen, C. Y. et al., J. Biol. Chem. 1993; 268: 7825-7831, Biochemistry 1991; 30: 5118-5125). 2 μl of a DMSO solution in which the test compound was diluted to as to be […] the final concentration was dispensed into a 96-well plate (round bottom) (Falcon 351190) (final concentration: 4 vol % DMSO). […]

[3] = tested on: prostate cancer cell line DU 145; assay: Cell proliferation inhibitory activity, DU 145; type: cell-based, human; conditions: Homo sapiens, 96 h, cells counted 4 days later with Cell Counting Kit-8
Description: as §3

T2 sequence (Q00526 whole entry): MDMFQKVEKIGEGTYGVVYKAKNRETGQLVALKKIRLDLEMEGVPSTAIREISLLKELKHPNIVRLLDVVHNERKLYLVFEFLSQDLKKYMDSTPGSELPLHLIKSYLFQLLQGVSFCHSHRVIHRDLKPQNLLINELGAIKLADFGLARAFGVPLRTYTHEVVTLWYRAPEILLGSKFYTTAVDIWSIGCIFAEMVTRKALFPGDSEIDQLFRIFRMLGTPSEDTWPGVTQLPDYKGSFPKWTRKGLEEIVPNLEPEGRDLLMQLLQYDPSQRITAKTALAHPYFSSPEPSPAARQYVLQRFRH
T2 sequence (P24864 whole entry partner): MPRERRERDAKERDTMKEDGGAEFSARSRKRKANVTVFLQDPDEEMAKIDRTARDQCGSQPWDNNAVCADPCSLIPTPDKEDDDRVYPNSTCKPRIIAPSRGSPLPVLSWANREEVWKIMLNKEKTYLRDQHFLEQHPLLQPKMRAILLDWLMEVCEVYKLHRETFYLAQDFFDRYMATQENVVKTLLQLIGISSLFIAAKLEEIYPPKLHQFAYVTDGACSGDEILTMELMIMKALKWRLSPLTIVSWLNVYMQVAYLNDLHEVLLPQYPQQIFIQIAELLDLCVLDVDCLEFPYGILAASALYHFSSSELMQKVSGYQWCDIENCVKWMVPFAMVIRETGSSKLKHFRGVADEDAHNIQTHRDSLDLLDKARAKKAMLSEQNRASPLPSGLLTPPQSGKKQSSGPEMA
T1 sequence (P06493 whole entry): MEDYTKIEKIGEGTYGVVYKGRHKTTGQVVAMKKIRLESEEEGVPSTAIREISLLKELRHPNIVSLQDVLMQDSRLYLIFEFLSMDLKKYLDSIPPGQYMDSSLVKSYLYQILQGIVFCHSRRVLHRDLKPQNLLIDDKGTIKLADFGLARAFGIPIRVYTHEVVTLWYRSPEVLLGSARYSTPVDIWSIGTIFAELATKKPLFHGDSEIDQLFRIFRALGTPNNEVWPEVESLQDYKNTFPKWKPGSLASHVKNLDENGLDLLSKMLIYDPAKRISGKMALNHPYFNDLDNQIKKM
T1 sequence (P14635 whole entry partner): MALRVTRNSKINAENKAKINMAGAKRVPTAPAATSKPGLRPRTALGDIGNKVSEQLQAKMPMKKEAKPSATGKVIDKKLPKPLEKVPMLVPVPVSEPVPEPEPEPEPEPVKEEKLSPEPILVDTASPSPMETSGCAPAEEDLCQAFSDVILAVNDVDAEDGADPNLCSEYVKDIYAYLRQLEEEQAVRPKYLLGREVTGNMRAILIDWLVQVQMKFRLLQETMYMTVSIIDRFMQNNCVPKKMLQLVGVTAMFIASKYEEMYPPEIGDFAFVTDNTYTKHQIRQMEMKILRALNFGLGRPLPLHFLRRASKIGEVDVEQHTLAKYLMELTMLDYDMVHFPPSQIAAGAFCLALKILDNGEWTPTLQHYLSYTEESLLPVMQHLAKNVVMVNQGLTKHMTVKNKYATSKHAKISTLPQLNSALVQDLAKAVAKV

Compound	IC50 (CDK1/Cyclin B complex)	IC50 (CDK2/Cyclin E complex)	IC50 (CDK3/Cyclin E complex)	IC50 (leukemia cell line KG-1a)	IC50 (Aurora A)	IC50 [1]	IC50 [2]	IC50 (recombinant human βARK1)	IC50 [3]
O=C(CNc1ccc(Cl)cc1)Nc1nc2ccc3[nH]ncc3c2s1 [compound 9]	372 nM	40 nM	81 nM	< 100 nM	–	–	–	–	–
CC(C)CC(Nc1cccc(O)c1)C(=O)Nc1nc2ccc3[nH]ncc3c2s1 (centres unmarked) [compound 25]	–	366 nM	448 nM	< 100 nM	137 nM	1600 nM	3200 nM	–	–
CC(=O)Nc1cc(NC(C(=O)Nc2nc3c(C(F)(F)F)cc4[nH]ncc4c3s2)c2ccccc2)ccc1Cl (centres unmarked) [compound 30]	–	172 nM	128 nM	–	–	1800 nM	4100 nM	9.8 nM	2700 nM
CCC(=O)Nc1cc(NC(C)(C)C(=O)Nc2nc3c(C(F)(F)F)cc4[nH]ncc4c3s2)ccc1Cl [compound 56]	–	390 nM	304 nM	400 nM	–	1100 nM	2500 nM	3.2 nM	2500 nM
CC(C)(Nc1cccc(C(=O)NCC(=O)OCCO)c1)C(=O)Nc1nc2c(C(F)(F)F)cc3[nH]ncc3c2s1 [compound 86]	483 nM	274 nM	85 nM	–	66 nM	–	–	–	–
CC(C)(Nc1ccc(Cl)nc1)C(=O)Nc1nc2c(C(F)(F)F)cc3[nH]ncc3c2s1 [compound 96]	–	347 nM	277 nM	–	–	2300 nM	3900 nM	–	3600 nM
